Format in all cases: biochemical
Experiment [1] has as its target T1, Lysine-specific demethylase 1 (LSD1) (Homo sapiens, UniProt O60341).
T1 construct: gene KDM1A
Kind of experiment: LSD1 Fluorimetric Drug Discovery kit (Enzo BML-AK544), HRP-coupled, H3K4me2 substrate.

A further experiment concerns the target T2, MAO-B (Homo sapiens, UniProt P27338).
T2 construct: gene MAOB
T2 sequence (P27338 2-520): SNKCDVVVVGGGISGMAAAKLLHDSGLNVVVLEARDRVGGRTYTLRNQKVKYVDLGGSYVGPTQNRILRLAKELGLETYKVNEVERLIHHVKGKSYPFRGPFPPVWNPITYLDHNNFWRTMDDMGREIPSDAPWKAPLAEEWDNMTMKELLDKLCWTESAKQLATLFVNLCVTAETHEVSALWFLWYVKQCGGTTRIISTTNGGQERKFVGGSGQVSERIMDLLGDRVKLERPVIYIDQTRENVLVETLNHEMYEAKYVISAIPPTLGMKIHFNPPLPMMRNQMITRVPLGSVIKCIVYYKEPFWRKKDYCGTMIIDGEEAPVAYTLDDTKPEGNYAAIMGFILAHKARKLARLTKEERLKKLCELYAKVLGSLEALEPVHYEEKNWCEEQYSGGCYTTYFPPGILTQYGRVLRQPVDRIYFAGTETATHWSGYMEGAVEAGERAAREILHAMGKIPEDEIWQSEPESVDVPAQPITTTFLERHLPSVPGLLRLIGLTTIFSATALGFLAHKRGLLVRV
The experiment in a line: MAO-Glo luminescent enzyme assay (Promega V1401), selectivity test. From the text:
MAO-Glo luminescent enzyme assay (Promega V1401), selectivity test on MAO-B | JL1037 enzymatic inhibitory activity against LSD1, MAO-A and MAO-B.

The target in the next experiment is T3, MAO-A (Homo sapiens, UniProt P21397).
T3 construct: gene MAOA
T3 sequence (P21397 1-527): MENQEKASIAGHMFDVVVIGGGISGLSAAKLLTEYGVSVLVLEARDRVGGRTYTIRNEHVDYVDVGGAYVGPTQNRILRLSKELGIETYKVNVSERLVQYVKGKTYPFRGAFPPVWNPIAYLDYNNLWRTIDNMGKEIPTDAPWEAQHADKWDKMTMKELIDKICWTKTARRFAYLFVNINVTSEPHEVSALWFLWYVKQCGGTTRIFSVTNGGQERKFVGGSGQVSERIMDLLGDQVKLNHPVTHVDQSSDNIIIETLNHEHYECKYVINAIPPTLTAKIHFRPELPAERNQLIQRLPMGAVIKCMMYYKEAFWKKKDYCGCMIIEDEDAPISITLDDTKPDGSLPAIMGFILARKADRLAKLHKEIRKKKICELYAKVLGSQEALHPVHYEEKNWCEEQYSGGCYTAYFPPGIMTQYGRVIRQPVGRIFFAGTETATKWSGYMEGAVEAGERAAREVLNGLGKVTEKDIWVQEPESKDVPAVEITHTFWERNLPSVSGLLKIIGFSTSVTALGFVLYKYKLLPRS
The description is as above. From the text: MAO-Glo luminescent enzyme assay (Promega V1401), selectivity test on MAO-A | JL1037 enzymatic inhibitory activity against LSD1, MAO-A and MAO-B.

Turning to JL1037, the results for the IC50 (in experiment [1]; on MAO-B; at MAO-A) were 0.11 µM, 1.77 µM and 1.92 µM, respectively.

The values are drawn from PMC5458257, “Identification of JL1037 as a novel, specific, reversible lysine-specific demethylase 1 inhibitor that induce apoptosis and autophagy of AML cells” (Oncotarget, 2017).
